Experimental data as given in US20100173873A1, “TREATMENT OF METASTASIZED TUMORS” (Novartis Vaccines and Diagnostics, Inc., priority 2005, published 2010).

Test system: PC-3M-luc tumor cells
Assay: PC-3M-luc bone metastatic prostate model
Assay type: in vivo, nude mice
Details: 15 mg/kg i.p. 3 times per week
Experimental: Cell lines. Metastatic human prostate cell line PC-3M expressing null p53, del PTEN, VEGFR, FGFR and stably transfected with a construct of luciferase were obtained under a licensing agreement with Xenogen.
In vivo efficacy studies. […]. Animals received sterile rodent chow and water ad libitum and were housed in sterile filter-top cages with 12 hour light/dark cycles. All experiments were conducted under the guidelines of the Association for Assessment and Accreditation of Laboratory Animal Care International. PC-3M luc bone metastatic model. Human prostate cancer cell line PC-3M-luc cells (1.5×10^6 cells) stably transfected with a construct of luciferase were injected via intracardiac injections. Bioluminescent imaging (Xenogen's IVIS® imaging system) was used to non-invasively monitor the in vivo growth and metastasis of PC-3M-luc tumors after cell inoculation. Nearly all PC-3M-luc tumor cell-injected animals developed prostate lesions, which were mainly localized in the femur, and mandibles. […]. Mice were monitored daily and were euthanized when moribund.
Immunohistochemistry. Bone (femurs, mandible) samples were decalcified (Protocol™, Fisher Diagnostics, Middletown, Va.). Paraffin blocks were sectioned to […] thickness and placed on positively charged glass slides. Tissues were stained with hematoxylin and eosin for general tissue morphology and identification of PC-3M cells in bone.
Nude mice were inoculated with PC-3M-Luc cells intracardiacally with 1.5×10^6 cells. […]. The PC-3M-luc cell lines were purchased from Xenogen and the mice were imaged using Xenogen's IVIS® imaging system.

CC(=O)O[C@H]1C(=O)[C@@]2(C)[C@H]([C@H](OC(=O)c3ccccc3)[C@]3(O)C[C@H](OC(=O)[C@H](O)[C@@H](NC(=O)c4ccccc4)c4ccccc4)C(C)=C1C3(C)C)[C@]1(OC(C)=O)CO[C@@H]1C[C@@H]2O [taxol, reference compound]
Treatment efficacy vs. vehicle: No difference in treatment efficacy
